Measured values taken from patent US7041698B2, “Hepatitis C virus inhibitors” (Bristol-Myers Squibb Company, priority 2002, dated 2006).

Tests used:
[1] = molecular target: T1, HCV NS3/4A protease complex (UniProt P27958, C1454S/C1711G, species not given); experiment: Recombinant HCV NS3/4A protease complex FRET peptide assay (strain not stated); assay type: biochemical; details: HCV NS3/4A protease enzyme assay, read-out: IC50 range
T1 construct: fused on or other part: Three-lysine solubilising tail at the C-terminus of NS4A

[2] = test system: HCV replicon in Huh7 cells; experiment: HCV replicon cell-based assay; set-up: species or system HCV strain 1B; details: Hepatitis C virus, Huh-7, 96 h, HCV replicon, 4 days, read-out: EC50 range
How it was run: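 Huh7 cells carrying a genotype 1b subgenomic replicon (NS3-NS5B, neo) treated 4 days at 37° C with compound (0.5% DMSO final). NS3 protease activity read in lysates with 10 μM FRET peptide (340/490 nm, kinetic), giving EC50. Confirmed by Taqman qRT-PCR of HCV RNA and a Renilla luciferase replicon.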

`C=C[C@@H]1C[C@]1(NC(=O)[C@@H]1C[C@@H](OC(=O)Nc2ccccc2C(=O)OCC)CN1C(=O)[C@@H](NC(=O)OC)C(C)(C)C)C(=O)NS(=O)(=O)C1CC1` [Compound 110] showed an IC50 [1] of less than 100 nM and an EC50 [2] of 100 to 1000 nM.
With `C=CC1C[C@]1(NC(=O)[C@@H]1C[C@@H](OC(=O)Nc2cc(Cl)nc(Cl)c2)CN1C(=O)[C@@H](NC(=O)OC(C)(C)C)C(C)(C)C)C(=O)NS(=O)(=O)C1CC1` (stereo partly drawn) [Compound 18, BocNH-P3(t-BuGly)-P2(Hyp(O—CO(NH—(2,6-Dichloro-pyridin-4-yl))))-P1(1R,2S VinylAcca)—CONHSO2Cyclopropane] the IC50 [1] was 100 to 1000 nM and the EC50 [2] was greater than 10000 nM.
Molecule `C=CC1C[C@]1(NC(=O)[C@@H]1C[C@@H](OC(=O)Nc2cc(Cl)ccc2C)CN1C(=O)[C@@H](NC(=O)OC(C)(C)C)C(C)(C)C)C(=O)NS(=O)(=O)C1CC1` (stereo partly drawn) [Compound 20, BocNH-P3(t-BuGly)-P(Hyp(O—CO(NH—(5-chloro-2-methyl-phenyl))))-P1(1R,2S VinylAcca)—CONHSO2Cyclopropane] has an IC50 [1] of less than 100 nM and an EC50 [2] of 1000 to 10000 nM.
Molecule `C=CC1C[C@]1(NC(=O)[C@@H]1C[C@@H](OC(=O)Nc2ccccc2CCC)CN1C(=O)[C@@H](NC(=O)OC(C)(C)C)C(C)(C)C)C(=O)NS(=O)(=O)C1CC1` (stereo partly drawn) [Compound 66, BocNH-P3(t-BuGly)-P2(Hyp(O—CO(NH—(2-propyl-phenyl))))-P1(1R,2S VinylAcca)—CONHSO2Cyclopropane] has an IC50 [1] of less than 100 nM and an EC50 [2] of 1000 to 10000 nM.
In the case of `C=CC1C[C@]1(NC(=O)[C@@H]1C[C@@H](OC(=O)Nc2ccccc2C(C)(C)C)CN1C(=O)[C@@H](NC(=O)OC(C)(C)C)C(C)(C)C)C(=O)NS(=O)(=O)C1CC1` (stereo partly drawn) [Compound 17, BocNH-P3(t-BuGly)-P2(Hyp(O—CO(NH—(2-tert-butyl-phenyl))))-P1(1R,2S VinylAcca)—CONHSO2Cyclopropane], the IC50 [1] is reported as 100 to 1000 nM and the EC50 [2] is reported as 1000 to 10000 nM.
For `C=CCN(CC=C)C(=O)O[C@@H]1C[C@@H](C(=O)N[C@]2(C(=O)NS(=O)(=O)C3CC3)CC2C=C)N(C(=O)[C@@H](NC(=O)OC(C)(C)C)C(C)(C)C)C1` (stereo partly drawn) [Compound 5, BocNH-P3(t-BuGly)-P2(Hyp(O—CO(N,N-diallyl)))-P1(1R,2S VinylAcca)—CONHSO2Cyclopropane], the IC50 [1] was 100 to 1000 nM and the EC50 [2] was 1000 to 10000 nM.
`C=CC1C[C@]1(NC(=O)[C@@H]1C[C@@H](OC(=O)NCc2ccccc2C)CN1C(=O)[C@@H](NC(=O)OC(C)(C)C)C(C)(C)C)C(=O)NS(=O)(=O)C1CC1` (stereo partly drawn) [Compound 2, BocNH-P3(t-BuGly)-P2(Hyp(O—CO(NH—(2-methylbenzyl))))-P1(1R,2S VinylAcca)—CONHSO2Cyclopropane] showed an IC50 [1] of 100 to 1000 nM and an EC50 [2] of 1000 to 10000 nM.
Molecule `C=CC1C[C@]1(NC(=O)[C@@H]1C[C@@H](OC(=O)N2CCCC2)CN1C(=O)[C@@H](NC(=O)OC(C)(C)C)C(C)(C)C)C(=O)NS(=O)(=O)C1CC1` (stereo partly drawn) [Compound 13, BocNH-P3(t-BuGly)-P2(Hyp(O—CO(N,N-(pyrrolidino))))-P1(1R,2S VinylAcca)—CONHSO2Cyclopropane] has an IC50 [1] of 100 to 1000 nM and an EC50 [2] greater than 10000 nM.
`C=C[C@@H]1C[C@]1(NC(=O)[C@@H]1C[C@@H](OC(=O)Nc2ccccc2C(=O)OCC)CN1C(=O)[C@@H](NC(=O)OCC)C(C)(C)C)C(=O)NS(=O)(=O)C1CC1` [Compound 111] showed an IC50 [1] of less than 100 nM and an EC50 [2] of 100 to 1000 nM.
Work on `C=CC1C[C@]1(NC(=O)[C@@H]1C[C@@H](OC(=O)Nc2c(F)cccc2F)CN1C(=O)[C@@H](NC(=O)OC(C)(C)C)C(C)(C)C)C(=O)NS(=O)(=O)C1CC1` (stereo partly drawn) [Compound 52, BocNH-P3(t-BuGly)-P2(Hyp(O—CO(NH—(2,6-difluorophenyl))))-P1(1R,2S VinylAcca)—CONHSO2Cyclopropane] yielded an IC50 [1] of 100 to 1000 nM and an EC50 [2] greater than 10000 nM.
Work on `C=CC1C[C@]1(NC(=O)[C@@H]1C[C@@H](OC(=O)Nc2ccccc2Br)CN1C(=O)[C@@H](NC(=O)OC(C)(C)C)C(C)(C)C)C(=O)NS(=O)(=O)C1CC1` (stereo partly drawn) [Compound 33, BocNH-P3(t-BuGly)-P2(Hyp(O—CO(NH—(2-bromo-phenyl))))-P1(1R,2S VinylAcca)—CONHSO2Cyclopropane] yielded an IC50 [1] of 100 to 1000 nM and an EC50 [2] of 100 to 1000 nM.
`C=CC1C[C@]1(NC(=O)[C@@H]1C[C@@H](OC(=O)N[C@H](C(=O)OC)[C@@H](C)CC)CN1C(=O)[C@@H](NC(=O)OC(C)(C)C)C(C)(C)C)C(=O)NS(=O)(=O)C1CC1` (stereo partly drawn) [Compound 12, BocNH-P3(t-BuGly)-P2(Hyp(O—CO(NH-2-[(2S,3S)-3-methylvaleric acid methyl ester])))-P1(1R,2S VinylAcca)—CONHSO2Cyclopropane] gave an IC50 [1] of 1000 to 10000 nM and an EC50 [2] greater than 10000 nM.
Molecule `C=CC1C[C@]1(NC(=O)[C@@H]1C[C@@H](OC(=O)Nc2ccccc2C(C)=O)CN1C(=O)[C@@H](NC(=O)OC(C)(C)C)C(C)(C)C)C(=O)NS(=O)(=O)C1CC1` (stereo partly drawn) [Compound 79, BocNH-P3(t-BuGly)-P2(Hyp(O—CO(NH—(2-acetophenone))))-P1(1R,2S VinylAcca)—CONHSO2Cyclopropane] has an IC50 [1] of less than 100 nM and an EC50 [2] of 100 to 1000 nM.
With `C=CC1C[C@]1(NC(=O)[C@@H]1C[C@@H](OC(=O)Nc2cc(C(F)(F)F)ccc2N2CCC(C(F)(F)F)CC2)CN1C(=O)[C@@H](NC(=O)OC(C)(C)C)C(C)(C)C)C(=O)NS(=O)(=O)C1CC1` (stereo partly drawn) [Compound 92, BocNH-P3(t-BuGly)-P2(Hyp(O—CO(NH—(5-Trifluoromethyl-2-(4-trifluoromethyl-piperidin-1-yl)-phenyl))))-P1(1R,2S VinylAcca)—CONHSO2Cyclopropane] the IC50 [1] was less than 100 nM and the EC50 [2] was less than 100 nM.
`C=CC1C[C@]1(NC(=O)[C@@H]1C[C@@H](OC(=O)Nc2ccccc2-n2cccc2)CN1C(=O)[C@@H](NC(=O)OC(C)(C)C)C(C)(C)C)C(=O)NS(=O)(=O)C1CC1` (stereo partly drawn) [Compound 86, BocNH-P3(t-BuGly)-P2(Hyp(O—CO(NH—(2-pyrrol-1-yl-phenyl))))-P1(1R,2S VinylAcca)—CONHSO2Cyclopropane] showed an IC50 [1] of less than 100 nM and an EC50 [2] of 100 to 1000 nM.
Work on `C=CC1C[C@]1(NC(=O)[C@@H]1C[C@@H](OC(=O)Nc2ccccc2F)CN1C(=O)[C@@H](NC(=O)OC(C)(C)C)C(C)(C)C)C(=O)NS(=O)(=O)C1CC1` (stereo partly drawn) [Compound 51, BocNH-P3(t-BuGly)-P2(Hyp(O—CO(NH—(2-fluoro-phenyl))))-P1(1R,2S VinylAcca)—CONHSO2Cyclopropane] yielded an IC50 [1] of 100 to 1000 nM and an EC50 [2] of 1000 to 10000 nM.
Work on `C=CC1C[C@]1(NC(=O)[C@@H]1C[C@@H](OC(=O)N2CCc3ccccc32)CN1C(=O)[C@@H](NC(=O)OC(C)(C)C)C(C)(C)C)C(=O)NS(=O)(=O)C1CC1` (stereo partly drawn) [Compound 36, BocNH-P3(t-BuGly)-P2(Hyp(O—CO(N-(1-indolinyl))))-P1(1R,2S VinylAcca)—CONHSO2Cyclopropane] yielded an IC50 [1] of less than 100 nM and an EC50 [2] of 100 to 1000 nM.
`C=CC1C[C@]1(NC(=O)[C@@H]1C[C@@H](OC(=O)Nc2ccccc2I)CN1C(=O)[C@@H](NC(=O)OC(C)(C)C)C(C)(C)C)C(=O)NS(=O)(=O)C1CC1` (stereo partly drawn) [Compound 65, BocNH-P3(t-BuGly)-P2(Hyp(O—CO(NH—(2-iodo-phenyl))))-P1(1R,2S VinylAcca)—CONHSO2Cyclopropane] was tested, and the IC50 [1] was less than 100 nM and the EC50 [2] was 100 to 1000 nM.
In the case of `C=CC1C[C@]1(NC(=O)[C@@H]1C[C@@H](OC(=O)Nc2ccccn2)CN1C(=O)[C@@H](NC(=O)OC(C)(C)C)C(C)(C)C)C(=O)NS(=O)(=O)C1CC1` (stereo partly drawn) [Compound 75, BocNH-P3(t-BuGly)-P2(Hyp(O—CO(NH—(pyridin-2-yl))))-P1(1R,2S VinylAcca)—CONHSO2Cyclopropane], the IC50 [1] is reported as 100 to 1000 nM and the EC50 [2] is reported as greater than 10000 nM.
`C=CC1C[C@]1(NC(=O)[C@@H]1C[C@@H](OC(=O)NCc2ccc(OC)cc2)CN1C(=O)[C@@H](NC(=O)OC(C)(C)C)C(C)(C)C)C(=O)NS(=O)(=O)C1CC1` (stereo partly drawn) [Compound 11, BocNH-P3(t-BuGly)-P2(Hyp(O—CO(NH—(4-methoxy-benzyl))))-P1(1R,2S VinylAcca)—CONHSO2Cyclopropane] showed an IC50 [1] of 100 to 1000 nM and an EC50 [2] of 1000 to 10000 nM.
`C=CC1C[C@]1(NC(=O)[C@@H]1C[C@@H](OC(=O)Nc2cc(C)ccc2-c2nccs2)CN1C(=O)[C@@H](NC(=O)OC(C)(C)C)C(C)(C)C)C(=O)NS(=O)(=O)C1CC1` (stereo partly drawn) [Compound 94, BocNH-P3(t-BuGly)-P2(Hyp(O—CO(NH—(5-Methyl-2-thiazol-2-yl-phenyl))))-P1(1R,2S VinylAcca)—CONHSO2Cyclopropane] gave an IC50 [1] of less than 100 nM and an EC50 [2] of less than 100 nM.
For `C=CC1C[C@]1(NC(=O)[C@@H]1C[C@@H](OC(=O)Nc2ccccc2-c2ccc(C)o2)CN1C(=O)[C@@H](NC(=O)OC(C)(C)C)C(C)(C)C)C(=O)NS(=O)(=O)C1CC1` (some centres unmarked) [Compound 81], the IC50 [1] was less than 100 nM and the EC50 [2] was less than 100 nM.
`C=CC1C[C@]1(NC(=O)[C@@H]1C[C@@H](OC(=O)Nc2cc(C)ccc2-n2nccn2)CN1C(=O)[C@@H](NC(=O)OC(C)(C)C)C(C)(C)C)C(=O)NS(=O)(=O)C1CC1` (stereo partly drawn) [Compound 97, BocNH-P3(t-BuGly)-P2(Hyp(O—CO(NH—(5-Methyl-2-[1,2,3]triazol-2-yl-phenyl))))-P1(1R,2S VinylAcca)—CONHSO2Cyclopropane] showed an IC50 [1] of less than 100 nM and an EC50 [2] of less than 100 nM.
Work on `C=CC1C[C@]1(NC(=O)[C@@H]1C[C@@H](OC(=O)Nc2ccccc2-n2cccn2)CN1C(=O)[C@@H](NC(=O)OC(C)(C)C)C(C)(C)C)C(=O)NS(=O)(=O)C1CC1` (stereo partly drawn) [Compound 89, BocNH-P3(t-BuGly)-P2(Hyp(O—CO(NH—(2-Pyrazol-1-yl-phenyl))))-P1(1R,2S VinylAcca)—CONHSO2Cyclopropane] yielded an IC50 [1] of less than 100 nM and an EC50 [2] of 100 to 1000 nM.
In the case of `C=CC1C[C@]1(NC(=O)[C@@H]1C[C@@H](OC(=O)N(CCCC)CCCC)CN1C(=O)[C@@H](NC(=O)OC(C)(C)C)C(C)(C)C)C(=O)NS(=O)(=O)C1CC1` (stereo partly drawn) [Compound 46, BocNH-P3(t-BuGly)-P2(Hyp(O—CO(N,N-dibutyl)))-P1(1R,2S VinylAcca)—CONHSO2Cyclopropane], the IC50 [1] is reported as 100 to 1000 nM and the EC50 [2] is reported as 1000 to 10000 nM.
